Data published in patent US6500425B1, “Inhibiting plant pathogens with an antagonistic microorganism(s)” (The United States of America as represented by the …, priority 1988, dated 2002).

Legend:
Format in all cases: in vivo
[1] = tested on: Penicillium expansum; assay: Penicillium expansum lesion diameter on wounded apples (Example XIII); settings: CaCl2 2 gram/100 ml alone (yeast 0), seven days
From the text: Golden delicious apples were artificially wounded in accordance with Example XI.
The entries of Table X are the average of 5 replicates per treatment.

[2] = tested on: Botrytis cinerea; assay: Botrytis cinerea infection of wounded apples, inorganic salts with or without NRRL Y-18314 (Example XI); settings: for Percent Infection, Salt Alone (No NRRL Y-18314): salt 2 grams/100 ml (FeSO4 5 millimolar), 10 days after inoculation, mean (standard error)
Experimental: Golden delicious apples were artificially wounded to a depth of 3 mm using a needle. Each of a first portion of the apples was treated with 50 microliter aliquots of an aqueous solution consisting of NRRL Y-18314 in sterile distilled water at a concentration of 10^7 CEU/ml with each of the salts listed in Table VIII at a concentration of 2 grams/100 ml (with the exception of FeSO4 which was utilized at a 5 millimolar concentration). A second portion of the apples was treated with a 50 microliter aqueous solution of the salts listed in Table VIII at a concentration of 2 grams/100 ml (with the exception of FeSO4 which was utilized in a concentration of 5 millimolar). Also a control was run using only sterile distilled water. Two hours after application of the above solutions, each of the apples was challenged with 20 microliters of a 10^5 spore/ml suspension of Botrytis cinerea. The average percent fruit infection of four trials (8 to 10 replicates per trial) was measured 10 days after inoculation with the Botrytis cinerea.
Values in parentheses are standard errors of the mean.

[3] = tested on: Penicillium digitatum; assay: Penicillium digitatum fruit rot of wounded grapefruit, CaCl2 and yeast concentrations (Example XIV)
Experimental: Grapefruit was wounded as in Example I. The wounded grapefruit were then treated with 50 microliter aliquots of the constituents identified in Tables XI and XII in sterile distilled water. Two hours later the […] were challenged with 20 microliters of a 10^4 spore/milliliter suspension of Penicillium digitatum. The grapefruit were incubated for 5 days at 24° C. before observations were taken.

[4] = tested on: Botrytis cinerea; assay: Botrytis cinerea infection of wounded apples, yeasts with or without CaCl2 (Example XII); settings: CaCl2 2 grams/100 ml, no yeast, seven days, mean (standard error)
From the text: Golden Delicious apples were wounded in accordance with the previous example. […] Two hours later the apples were challenged with 20 microliters of a suspension of 10^4 spores/milliliters of Botrytis cinerea. Seven days after inoculation percent infection was observed. […] Values in parentheses are standard errors of the mean.

Q: Which results are given for `[Ca+2].[Cl-].[Cl-]` [CaCl2, calcium chloride]?
A: Average Lesion Diameter ([1]; 10^3 spores/ml): 40.4 mm; Average Lesion Diameter ([1]; 10^4 spores/ml): 45.2 mm; Average Lesion Diameter ([1]; 10^5 spores/ml): 47.0 mm; Percent Infection, Salt Alone (No NRRL Y-18314) [2]: 95.0 (±5.0) %; infection reduction when used alone ([2]; used alone, 10 days): approximately 5%; Average Percent Fruit Rot ([3]; CaCl2 1% alone (yeast 0), series of Table XI): 39.0%; Average Percent Fruit Rot ([3]; CaCl2 1% alone (yeast 0), series of Table XII): 63.0%; Average Percent Fruit Rot ([3]; CaCl2 2% alone (yeast 0), series of Table XI): 22.8%; Average Percent Fruit Rot ([3]; CaCl2 2% alone (yeast 0), series of Table XII): 33.0%; Average Percent Infection [4]: 100.0 (±0.0) %

Q: With `[Cl-].[Na+]` [NaCl] as the compound, how does the “Percent Infection, Salt Alone (No NRRL Y-18314)” value [2] read?
A: 100.0 (±0.0) %

Q: How did the “Percent Infection, Salt Alone (No NRRL Y-18314)” value [2] turn out when `[Cl-].[Cl-].[Mg+2]` [MgCl2] was run?
A: 100.0 (±0.0) %

Q: With `[Cl-].[K+]` [KCl] as the compound, how does the “Percent Infection, Salt Alone (No NRRL Y-18314)” value [2] read?
A: 100.0 (±0.0) %

Q: For `O=S(=O)([O-])[O-].[Fe+2]` [FeSO4], which “Percent Infection, Salt Alone (No NRRL Y-18314)” value [2] is on record?
A: 87.5 (±12.5) %

Q: For `[Cl][Mn][Cl]` [MnCl2], which “Percent Infection, Salt Alone (No NRRL Y-18314)” value [2] is on record?
A: 100.0 (±0.0) %
